Assay results published in patent EP4810052A2, “HCRHR2 SELECTIVE POLYPEPTIDES” (Gubra A/S, priority 2023, dated 2026).
Where two headings read alike, the source gives them in different places. Starred links: 1 amine or outer side, 2 acyl side, 3 side chain; linkers in the order of their positions; H or OH if unused. Non-standard residues stand in square brackets, D forms with d. Residues, ends and D or L forms follow the SMILES beside them. Groups on a side chain read outwards from the residue. *: point of attachment. C20 diacid = O=C(O)CCCCCCCCCCCCCCCCCCC(=O)*; Pro(cis-4-F) = O=C(O)[C@@H]1C[C@H](F)CN1; γGlu = O=C(O)[C@H](CCC(=O)[*:2])N[*:1]; NMeI = CC[C@H](C)[C@H](NC)C(=O)O; Nle = CCCC[C@H](N)C(=O)O; Ac5c = NC1(C(=O)O)CCCC1; AEEA = NCCOCCOCC(=O)O; Aib = CC(C)(N)C(=O)O

Assays:
[1] = molecular target: T1, hCRHR2 (Homo sapiens, UniProt Q13324); experiment: HTRF cAMP assay, determination of hCRHR2 potency (peptide libraries 5 conc., purified peptides 11 conc.); assay type: cell-based
T1 sequence (Q13324 1-411): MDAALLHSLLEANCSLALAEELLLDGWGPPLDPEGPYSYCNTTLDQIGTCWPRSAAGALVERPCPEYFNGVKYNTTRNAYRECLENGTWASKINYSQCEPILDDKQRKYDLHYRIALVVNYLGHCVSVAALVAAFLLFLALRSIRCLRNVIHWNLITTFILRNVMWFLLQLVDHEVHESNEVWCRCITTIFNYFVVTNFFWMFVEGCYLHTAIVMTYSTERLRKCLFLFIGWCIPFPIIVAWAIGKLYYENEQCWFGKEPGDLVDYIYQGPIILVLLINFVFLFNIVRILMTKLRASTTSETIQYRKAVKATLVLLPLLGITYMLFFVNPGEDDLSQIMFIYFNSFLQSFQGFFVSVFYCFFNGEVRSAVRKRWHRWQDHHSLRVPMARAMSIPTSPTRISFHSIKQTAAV
Procedure, shortened: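 CHO-K1 cells stably expressing human CRHR2, thawed from frozen stocks just before use and run in suspension; cAMP measured by competitive HTRF immunoassay (cryptate anti-cAMP, d2-cAMP). Agonist peptides tested at 5 (libraries) or 11 (purified) concentrations; EC50 from sigmoid variable-slope nonlinear regression.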

[2] = molecular target: T2, hCRHR1 (Homo sapiens, UniProt P34998); experiment: HTRF cAMP assay, determination of hCRHR1 potency (peptide libraries 5 conc., purified peptides 11 conc.); assay type: cell-based
T2 sequence (P34998 24-415): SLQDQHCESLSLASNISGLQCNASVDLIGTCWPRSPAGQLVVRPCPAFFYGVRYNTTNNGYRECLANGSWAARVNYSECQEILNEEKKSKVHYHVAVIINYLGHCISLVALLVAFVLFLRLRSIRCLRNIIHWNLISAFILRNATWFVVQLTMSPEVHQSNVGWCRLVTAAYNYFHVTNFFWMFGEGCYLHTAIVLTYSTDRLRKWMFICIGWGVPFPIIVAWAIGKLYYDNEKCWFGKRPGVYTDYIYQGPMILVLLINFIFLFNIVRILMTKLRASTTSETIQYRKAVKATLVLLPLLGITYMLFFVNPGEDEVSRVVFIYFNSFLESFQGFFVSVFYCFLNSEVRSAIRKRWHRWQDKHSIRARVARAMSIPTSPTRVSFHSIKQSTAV
Procedure, shortened: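 CHO-K1 cells stably expressing human CRHR1, thawed from frozen stocks just before use, were stimulated in suspension with agonist peptides. cAMP was measured by HTRF competitive immunoassay (cryptate anti-cAMP antibody vs d2-cAMP).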

[3] = library peptides, matched molecular pairs L vs Nle in position X^38, read-out: Potency hCRHR2 pEC50 (converted)
[4] = library peptides, matched molecular pairs L vs Nle in position X^38, read-out: Potency hCRHR1 pEC50 (converted)
[5] = Table 4, library peptides having X^38 = Nle, read-out: hCRHR2 pEC50 (converted)
[6] = Table 4, library peptides having X^38 = Nle, read-out: hCRHR1 pEC50 (converted)

| EC50 [1, 3] [nM] | EC50 [2, 4] [nM] | EC50 [1, 5] [nM] | Selectivity hCRHR1 EC50/hCRHR2 EC50 ([1]; Table 4, ratio, or comparison with Ref. 1 (SEQ ID NO: 205) / Ref. 2 (SEQ ID NO: 124)) | EC50 [2, 6] [nM] | SMILES |
| --- | --- | --- | --- | --- | --- |
| 0.398 | 3160 | – | – | – | CC[C@H](C)[C@H](N)C(=O)N[C@H](C(=O)N[C@@H](CC(C)C)C(=O)N[C@@H](CO)C(=O)N[C@@H](CC(C)C)C(=O)N[C@@H](CC(=O)O)C(=O)N[C@H](C(=O)N1CCC[C@H]1C(=O)N[C@H](C(=O)NCC(=O)N[C@@H](CC(C)C)C(=O)N[C@@H](CC(C)C)C(=O)N[C@@H](CCC(N)=O)C(=O)N[C@H](C(=O)N[C@@H](CC(C)C)C(=O)N[C@@H](CC(C)C)C(=O)N[C@@H](CCC(=O)O)C(=O)N[C@@H](CCC(N)=O)C(=O)N[C@@H](C)C(=O)N[C@@H](CCCNC(=N)N)C(=O)N[C@@H](C)C(=O)N[C@@H](CCCNC(=N)N)C(=O)N[C@@H](C)C(=O)N[C@@H](CCC(N)=O)C(=O)N[C@@H](CCCNC(=N)N)C(=O)N[C@@H](CCC(=O)O)C(=O)N[C@@H](CCC(N)=O)C(=O)N[C@@H](C)C(=O)N[C@@H](CCCCNC(=O)COCCOCCNC(=O)COCCOCCNC(=O)CC[C@H](NC(=O)CC[C@H](NC(=O)CCCCCCCCCCCCCCCCCCC(=O)O)C(=O)O)C(=O)O)C(=O)N[C@H](C(=O)N[C@@H](CC(N)=O)C(=O)N[C@@H](C)C(=O)N[C@@H](CCC(=O)O)C(=O)N[C@H](C(=O)N[C@@H](CC(C)C)C(=O)N[C@@H](C)C(=O)N[C@@H](CCC(=O)O)C(=O)N[C@H](C(N)=O)C(C)C)[C@@H](C)CC)[C@@H](C)O)[C@@H](C)CC)[C@@H](C)CC)C(C)C)C(C)C [compound 56] (H-IVLSLDVPIGLLQILLEQARARAQREQAK([AEEA-AEEA-γGlu-γGlu-C20 diacid])TNAEILAEV-NH2) |
| 0.316 | 251 | – | – | – | CC[C@H](C)[C@H](N)C(=O)N[C@H](C(=O)N[C@@H](CC(C)C)C(=O)N[C@@H](CO)C(=O)N[C@@H](CC(C)C)C(=O)N[C@@H](CC(=O)O)C(=O)N[C@H](C(=O)N1CCC[C@H]1C(=O)N[C@H](C(=O)NCC(=O)N[C@@H](CC(C)C)C(=O)N[C@@H](CC(C)C)C(=O)N[C@@H](CCC(N)=O)C(=O)N[C@H](C(=O)N[C@@H](CC(C)C)C(=O)N[C@@H](CC(C)C)C(=O)N[C@@H](CCC(=O)O)C(=O)N[C@@H](CCC(N)=O)C(=O)N[C@@H](C)C(=O)N[C@@H](CCCNC(=N)N)C(=O)N[C@@H](C)C(=O)N[C@@H](CCCNC(=N)N)C(=O)N[C@@H](CCC(N)=O)C(=O)N[C@@H](CC(C)C)C(=O)N[C@@H](CCCNC(=N)N)C(=O)N[C@@H](CCC(=O)O)C(=O)N[C@@H](CCC(N)=O)C(=O)N[C@@H](C)C(=O)N[C@@H](CCCCNC(=O)COCCOCCNC(=O)COCCOCCNC(=O)CC[C@H](NC(=O)CC[C@H](NC(=O)CCCCCCCCCCCCCCCCCCC(=O)O)C(=O)O)C(=O)O)C(=O)N[C@H](C(=O)N[C@@H](CC(N)=O)C(=O)N[C@@H](C)C(=O)N[C@@H](CCC(=O)O)C(=O)N[C@H](C(=O)N[C@@H](CC(C)C)C(=O)N[C@@H](C)C(=O)N[C@@H](CCC(=O)O)C(=O)N[C@H](C(N)=O)C(C)C)[C@@H](C)CC)[C@@H](C)O)[C@@H](C)CC)[C@@H](C)CC)C(C)C)C(C)C [compound 72] (H-IVLSLDVPIGLLQILLEQARARQLREQAK([AEEA-AEEA-γGlu-γGlu-C20 diacid])TNAEILAEV-NH2) |

Continued, compound first:

| SMILES | EC50 [1, 3] [nM] | EC50 [2, 4] [nM] | EC50 [1, 5] [nM] | Selectivity hCRHR1 EC50/hCRHR2 EC50 ([1]; Table 4, ratio, or comparison with Ref. 1 (SEQ ID NO: 205) / Ref. 2 (SEQ ID NO: 124)) | EC50 [2, 6] [nM] |
| --- | --- | --- | --- | --- | --- |
| CCCC[C@H](NC(=O)[C@@H](NC(=O)[C@H](CCC(=O)O)NC(=O)C(C)(C)NC(=O)[C@H](CC(N)=O)NC(=O)[C@@H](NC(=O)[C@H](CCCCNC(=O)COCCOCCNC(=O)COCCOCCNC(=O)CC[C@H](NC(=O)CC[C@H](NC(=O)CCCCCCCCCCCCCCCCCCC(=O)O)C(=O)O)C(=O)O)NC(=O)[C@H](C)NC(=O)[C@H](CCC(N)=O)NC(=O)[C@H](CCC(=O)O)NC(=O)[C@H](CCCNC(=N)N)NC(=O)[C@H](C)NC(=O)[C@H](C)NC(=O)[C@H](CCCNC(=N)N)NC(=O)[C@H](C)NC(=O)[C@H](CCCNC(=N)N)NC(=O)[C@H](C)NC(=O)[C@H](CCC(N)=O)NC(=O)[C@H](CCC(=O)O)NC(=O)[C@H](CC(C)C)NC(=O)[C@H](CC(C)C)NC(=O)[C@@H](NC(=O)[C@H](CCC(N)=O)NC(=O)[C@H](CC(C)C)NC(=O)[C@H](CC(C)C)NC(=O)CNC(=O)[C@@H](NC(=O)[C@@H]1CCCN1C(=O)[C@@H](NC(=O)[C@H](CC(=O)O)NC(=O)[C@H](CC(C)C)NC(=O)[C@H](CO)NC(=O)[C@H](CC(C)C)NC(=O)[C@@H](NC(=O)[C@@H](NC)[C@@H](C)CC)C(C)C)C(C)C)[C@@H](C)CC)[C@@H](C)CC)[C@@H](C)O)[C@@H](C)CC)C(=O)N[C@@H](C)C(=O)N[C@@H](CCC(=O)O)C(=O)N[C@H](C(N)=O)C(C)C [compound 205] (H-[NMeI]VLSLDVPIGLLQILLEQARARAAREQAK([AEEA-AEEA-γGlu-γGlu-C20 diacid])TN[Aib]EI[Nle]AEV-NH2) | – | – | 0.0631 | 20689 | 1260 |
| CCCC[C@H](NC(=O)[C@@H](NC(=O)[C@H](CCC(=O)O)NC(=O)[C@H](C)NC(=O)[C@H](CC(N)=O)NC(=O)C(C)(C)NC(=O)[C@H](CCCCNC(=O)COCCOCCNC(=O)COCCOCCNC(=O)CC[C@H](NC(=O)CC[C@H](NC(=O)CCCCCCCCCCCCCCCCCCC(=O)O)C(=O)O)C(=O)O)NC(=O)[C@H](C)NC(=O)[C@H](CCC(N)=O)NC(=O)[C@H](CCC(=O)O)NC(=O)[C@H](CCCNC(=N)N)NC(=O)[C@H](C)NC(=O)[C@H](C)NC(=O)[C@H](CCCNC(=N)N)NC(=O)[C@H](C)NC(=O)[C@H](CCCNC(=N)N)NC(=O)[C@H](C)NC(=O)[C@H](CCC(N)=O)NC(=O)[C@@H](NC(=O)[C@H](CC(C)C)NC(=O)[C@H](CC(C)C)NC(=O)[C@@H](NC(=O)[C@H](CCC(N)=O)NC(=O)[C@H](CC(C)C)NC(=O)[C@H](CC(C)C)NC(=O)CNC(=O)[C@@H](NC(=O)[C@@H]1CCCN1C(=O)[C@@H](NC(=O)[C@H](CC(=O)O)NC(=O)[C@H](CC(C)C)NC(=O)[C@H](CO)NC(=O)[C@H](CC(C)C)NC(=O)[C@@H](NC(=O)[C@@H](NC)[C@@H](C)CC)C(C)C)C(C)C)[C@@H](C)CC)[C@@H](C)CC)[C@@H](C)O)[C@@H](C)CC)C(=O)N[C@@H](C)C(=O)N[C@@H](CCC(=O)O)C(=O)N[C@H](C(N)=O)C(C)C [compound 134] (H-[NMeI]VLSLDVPIGLLQILLTQARARAAREQAK([AEEA-AEEA-γGlu-γGlu-C20 diacid])[Aib]NAEI[Nle]AEV-NH2) | – | – | 0.00794 | – | 794 |
| CC[C@H](C)[C@H](N)C(=O)N[C@H](C(=O)N[C@@H](CC(C)C)C(=O)N[C@@H](CO)C(=O)N[C@@H](CC(C)C)C(=O)N[C@@H](CC(=O)O)C(=O)NC1(C(=O)N2C[C@@H](F)C[C@H]2C(=O)N[C@H](C(=O)NCC(=O)N[C@@H](CC(C)C)C(=O)N[C@@H](CC(C)C)C(=O)N[C@@H](CCC(N)=O)C(=O)N[C@H](C(=O)N[C@@H](CC(C)C)C(=O)N[C@@H](CC(C)C)C(=O)N[C@@H](CCC(=O)O)C(=O)N[C@@H](CCC(N)=O)C(=O)N[C@@H](C)C(=O)N[C@@H](CCCNC(=N)N)C(=O)N[C@@H](C)C(=O)N[C@@H](CCCNC(=N)N)C(=O)N[C@@H](C)C(=O)N[C@@H](C)C(=O)N[C@@H](CCCNC(=N)N)C(=O)N[C@@H](CCC(=O)O)C(=O)N[C@@H](CCC(N)=O)C(=O)N[C@@H](C)C(=O)N[C@@H](CCCCNC(=O)COCCOCCNC(=O)COCCOCCNC(=O)CC[C@H](NC(=O)CC[C@H](NC(=O)CCCCCCCCCCCCCCCCCCC(=O)O)C(=O)O)C(=O)O)C(=O)N[C@H](C(=O)N[C@@H](CC(N)=O)C(=O)N[C@@H](C)C(=O)N[C@@H](CCC(=O)O)C(=O)N[C@H](C(=O)N[C@@H](CC(C)C)C(=O)N[C@@H](C)C(=O)N[C@@H](CCC(=O)O)C(=O)N[C@H](C(N)=O)C(C)C)[C@@H](C)CC)[C@@H](C)O)[C@@H](C)CC)[C@@H](C)CC)CCCC1)C(C)C [compound 86] (H-IVLSLD[Ac5c][Pro(cis-4-F)]IGLLQILLEQARARAAREQAK([AEEA-AEEA-γGlu-γGlu-C20 diacid])TNAEILAEV-NH2) | 0.631 | 3.16 | – | – | – |
